Data published in ChEMBL document CHEMBL4842348 (J Med Chem, 2021).

Tests used:
[1] = MRT in CD1 mouse at 1 mg/kg, iv and 2 mg/kg, po; format: ADME, organism-based; settings: in vivo
[2] = Clearance in CD1 mouse at 1 mg/kg, iv and 2 mg/kg, po; format: ADME, organism-based; settings: in vivo
[3] = Volume of distribution at steady state in CD1 mouse at 1 mg/kg, iv and 2 mg/kg, po; format: ADME, organism-based; settings: in vivo, read-out: Vdss
[4] = Bioavailability in CD1 mouse at 1 mg/kg, iv and 2 mg/kg, po; format: ADME, organism-based; settings: in vivo
[5] = Terminal half life in CD1 mouse at 1 mg/kg, iv; format: ADME, organism-based; settings: in vivo, read-out: beta t1/2 (converted)
[6] = Tmax in CD1 mouse at 2 mg/kg, po; format: ADME, organism-based; settings: in vivo
[7] = Plasma clearance in WH rat at 1 mg/kg, iv; format: ADME, organism-based
[8] = Volume of distribution at steady state in WH rat at 1 mg/kg, iv; format: ADME, organism-based; settings: in vivo, read-out: Vdss
[9] = MRT in WH rat at 1 mg/kg, iv; format: ADME, organism-based; settings: in vivo
[10] = Tmax in WH rat at 2 mg/kg, po; format: ADME, organism-based; settings: in vivo
[11] = AUC (0 to infinitive) in WH rat at 2 mg/kg, po; format: ADME, organism-based; set-up: route oral, time infinity, dose 2 mg/kg; settings: in vivo
[12] = Oral bioavailability in WH rat at 2 mg/kg; format: ADME, organism-based; settings: in vivo
[13] = Plasma clearance in Beagle dog at 0.5 mg/kg, iv; format: ADME, organism-based, Canis lupus familiaris
[14] = Volume of distribution at steady state in Beagle dog at 0.5 mg/kg, iv; format: ADME, organism-based, Canis lupus familiaris; settings: in vivo, read-out: Vdss
[15] = Terminal half life in Beagle dog at 0.5 mg/kg, iv; format: ADME, organism-based, Canis lupus familiaris; settings: in vivo, read-out: beta t1/2 (converted)
[16] = MRT in Beagle dog at 0.5 mg/kg, iv; format: ADME, organism-based, Canis lupus familiaris; settings: in vivo
[17] = Tmax in Beagle dog at 2 mg/kg, po; format: ADME, organism-based, Canis lupus familiaris; settings: in vivo
[18] = Oral bioavailability in Beagle dog at 2 mg/kg; format: ADME, organism-based, Canis lupus familiaris; settings: in vivo
[19] = Plasma clearance in rhesus monkey at 0.5 mg/kg, iv; format: ADME, organism-based, Macaca mulatta
[20] = Terminal half life in rhesus monkey at 0.5 mg/kg, iv; format: ADME, organism-based, Macaca mulatta; settings: in vivo, read-out: beta t1/2 (converted)
[21] = MRT in […] rhesus monkey at 0.5 mg/kg, iv; format: ADME, organism-based, Macaca mulatta; settings: in vivo
[22] = Cmax in rhesus monkey at 2 mg/kg, po; format: ADME, organism-based, Macaca mulatta; set-up: route oral, dose 2 mg/kg; settings: in vivo
[23] = Tmax in rhesus monkey at 2 mg/kg, po; format: ADME, organism-based, Macaca mulatta; settings: in vivo
[24] = Half life in NFR-transgenic mouse plasma at 10 mg/kg, po single dose; format: ADME, organism-based
[25] = Half life in lean wild type mouse plasma at 10 mg/kg, po qd treated for 40 days; format: ADME, organism-based; settings: time 40 day
[26] = Half life in lean wild type mouse liver at 10 mg/kg, po qd treated for 40 days; format: ADME, organism-based; settings: time 40 day
[27] = Half life in DIO wild type mouse plasma at 10 mg/kg, po qd treated for 40 days; format: ADME, organism-based; settings: time 40 day
[28] = Half life in DIO wild type mouse adipose tissue at 10 mg/kg, po qd treated for 40 days; format: ADME, organism-based; settings: time 40 day
[29] = Half life in lean NFR-transgenic mouse plasma at 10 mg/kg, po qd treated for 40 days; format: ADME, organism-based; settings: time 40 day
[30] = Half life in lean NFR-transgenic mouse liver at 10 mg/kg, po qd treated for 40 days; format: ADME, organism-based; settings: time 40 day
[31] = Half life in lean NFR-transgenic mouse adipose tissue at 10 mg/kg, po qd treated for 40 days; format: ADME, organism-based; settings: time 40 day
[32] = Normalized AUC (0 to 72 hrs) in fasted dog at 1 mg/kg, po in 0.5% methocel; format: ADME, organism-based, Canis lupus familiaris; settings: in vivo
[33] = Normalized AUC (0 to 72 hrs) in fasted dog at 1 mg/kg, po in Imwitor/Tween; format: ADME, organism-based, Canis lupus familiaris; settings: in vivo
[34] = Normalized AUC (0 to 72 hrs) in high fat diet fed dog at 1 mg/kg, po in Imwitor/Tween; format: ADME, organism-based, Canis lupus familiaris; settings: in vivo
[35] = Cmax in high fat diet fed dog at 1 mg/kg, po in 0.5% methocel; format: ADME, organism-based, Canis lupus familiaris; set-up: route oral, dose 1 mg/kg; settings: in vivo
[36] = Cmax in fasted dog at 1 mg/kg, po in Imwitor/Tween; format: ADME, organism-based, Canis lupus familiaris; set-up: route oral, dose 1 mg/kg; settings: in vivo
[37] = Cmax in high fat diet fed dog at 1 mg/kg, po in Imwitor/Tween; format: ADME, organism-based, Canis lupus familiaris; set-up: route oral, dose 1 mg/kg; settings: in vivo
[38] = Oral bioavailability in fasted dog at 1 mg/kg in 0.5% methocel; format: ADME, organism-based, Canis lupus familiaris; settings: in vivo
[39] = Oral bioavailability in high fat diet fed dog at 1 mg/kg in 0.5% methocel; format: ADME, organism-based, Canis lupus familiaris; settings: in vivo
[40] = Oral bioavailability in fasted dog at 1 mg/kg in Imwitor/Tween; format: ADME, organism-based, Canis lupus familiaris; settings: in vivo
[41] = Oral bioavailability in high fat diet fed dog at 1 mg/kg in Imwitor/Tween; format: ADME, organism-based, Canis lupus familiaris; settings: in vivo
[42] = Drug recovery in bile duct cannulated single po dosed WH rat assessed as recovered total bile radioactivity; format: ADME, organism-based; settings: in vivo
[43] = Drug recovery in bile duct cannulated single po dosed WH rat assessed as recovered glucuronide conjugate in bile relative to total recovery; format: ADME, organism-based; settings: in vivo
[44] = Drug recovery in bile duct cannulated single po dosed WH rat assessed as recovered taurine conjugate in bile relative to total recovery; format: ADME, organism-based; settings: in vivo
[45] = Drug recovery in bile duct cannulated single po dosed WH rat assessed as recovered total feces radioactivity; format: ADME, organism-based; settings: in vivo
[46] = Drug recovery in bile duct cannulated single po dosed WH rat assessed as recovered parent compound in feces relative to total recovery; format: ADME, organism-based; settings: in vivo
[47] = Drug recovery in bile duct cannulated single po dosed WH rat assessed as recovered total urine radioactivity; format: ADME, organism-based; settings: in vivo
[48] = Drug recovery in bile duct cannulated single iv dosed WH rat assessed as recovered total bile radioactivity; format: ADME, organism-based; settings: in vivo
[49] = Drug recovery in bile duct cannulated single iv dosed WH rat assessed as recovered total feces radioactivity; format: ADME, organism-based; settings: in vivo
[50] = Drug recovery in bile duct cannulated single iv dosed WH rat assessed as recovered parent compound in plasma measure at 2 hrs relative to total recovery; format: ADME, organism-based; settings: in vivo
[51] = Drug recovery in bile duct cannulated single iv dosed WH rat assessed as recovered glucuronide conjugate in plasma measure at 2 hrs relative to total recovery; format: ADME, organism-based; settings: in vivo
[52] = Drug recovery in bile duct cannulated single iv dosed WH rat assessed as recovered parent compound in plasma measure at 24 hrs relative to total recovery; format: ADME, organism-based; settings: in vivo
[53] = Drug recovery in bile duct cannulated single po dosed rhesus monkey assessed as recovered total bile radioactivity; format: ADME, organism-based, Macaca mulatta; settings: in vivo
[54] = Drug recovery in bile duct cannulated single po dosed rhesus monkey assessed as recovered glucuronide conjugate in bile relative to total recovery; format: ADME, organism-based, Macaca mulatta; settings: in vivo
[55] = Drug recovery in bile duct cannulated single po dosed rhesus monkey assessed as recovered taurine conjugate in bile relative to total recovery; format: ADME, organism-based, Macaca mulatta; settings: in vivo
[56] = Drug recovery in bile duct cannulated single po dosed rhesus monkey assessed as recovered total feces radioactivity; format: ADME, organism-based, Macaca mulatta; settings: in vivo
[57] = Drug recovery in bile duct cannulated single po dosed rhesus monkey assessed as recovered parent compound in feces relative to total recovery; format: ADME, organism-based, Macaca mulatta; settings: in vivo
[58] = Drug recovery in bile duct cannulated single po dosed rhesus monkey assessed as recovered total urine radioactivity; format: ADME, organism-based, Macaca mulatta; settings: in vivo
[59] = Drug recovery in bile duct cannulated single po dosed rhesus monkey assessed as recovered parent compound in urine relative to total recovery; format: ADME, organism-based, Macaca mulatta; settings: in vivo
[60] = Drug recovery in bile duct cannulated single po dosed rhesus monkey assessed as recovered parent compound in plasma measured at 2 hrs relative to total recovery; format: ADME, organism-based, Macaca mulatta; settings: in vivo
[61] = Drug recovery in bile duct cannulated single po dosed rhesus monkey assessed as recovered parent compound in plasma measured at 24 hrs relative to total recovery; format: ADME, organism-based, Macaca mulatta; settings: in vivo

COc1ncc(-c2ccc(C(=O)O)cc2C)cc1-c1ccc(C(F)(F)F)cc1[C@@H]1CC[C@H]2[C@@H](c3cc(C(F)(F)F)cc(C(F)(F)F)c3)OC(=O)N12
MRT [1]: 6 h | clearance [2]: 2.6 mL/min/kg | Vd [3]: 0.95 L/kg | bioavailability [4]: 43% | half-life [5]: 264 min | Tmax [6]: 2.7 h | clearance [7]: 3.1 mL/min/kg | Vd [8]: 2.4 L/kg | MRT [9]: 13 h | Tmax [10]: 4 h | AUC(0-inf) [11]: 9.7 µM·h | bioavailability [12]: 65% | clearance [13]: 0.52 mL/min/kg | Vd [14]: 0.54 L/kg | half-life [15]: 900 min | MRT [16]: 18 h | Tmax [17]: 1.7 h | bioavailability [18]: 14% | clearance [19]: 0.39 mL/min/kg | half-life [20]: 3000 min | MRT [21]: 60 h | Cmax [22]: 220 nM | Tmax [23]: 6.7 h | half-life [24]: 720 min | half-life [25]: 48 min | half-life [26]: 90 min | half-life [27]: 2.8 days | half-life [28]: 3.6 days | half-life [29]: 12 days | half-life [30]: 2.9 days | half-life [31]: 2160 min | AUC/dose [32]: 6.5 µM·kg·h/mg | AUC/dose [33]: 24 µM·kg·h/mg | AUC/dose [34]: 22 µM·kg·h/mg | Cmax [35]: 300 nM | Cmax [36]: 1500 nM | Cmax [37]: 1300 nM | bioavailability [38]: 14% | bioavailability [39]: 9% | bioavailability [40]: 53% | bioavailability [41]: 48% | Drug recovery [42]: > 99% | Drug recovery [43]: > 98% | Drug recovery [44]: 0% | Drug recovery [45]: 46% | Drug recovery [46]: > 98% | Drug recovery [47]: 0% | Drug recovery [48]: 67% | Drug recovery [49]: 15% | Drug recovery [50]: > 96% | Drug recovery [51]: < 4% | Drug recovery [52]: > 99% | Drug recovery [53]: > 99% | Drug recovery [54]: > 96% | Drug recovery [55]: 3% | Drug recovery [56]: 60% | Drug recovery [57]: 95% | Drug recovery [58]: 7% | Drug recovery [59]: > 99% | Drug recovery [60]: > 99% | Drug recovery [61]: > 99%
